# Assay results published in publication PMC8587000, “Pyridinone Derivatives as Interesting Formyl Peptide Receptor (FPR) Agonists for the Treatment of Rheumatoid Arthritis” (Molecules, 2021).
# Assays:
# human neutrophils (hPMN) = assay: Ca2+ mobilization in human neutrophils (hPMN); type: cell-based; details: Neutrophil; for Emax: read-out: hPMN Efficacy (converted)
# Excerpt: Blood was collected from healthy donors in accordance with a protocol approved by the Institutional Review Board at Montana State University. Neutrophils were purified from the blood using dextran sedimentation, followed by Histopaque 1077 gradient separation and hypotonic lysis of red blood cells. Isolated neutrophils were washed twice and resuspended in HBSS^-. Neutrophil preparations were routinely >95% pure, as determined by light microscopy, and >98% viable, as determined by trypan blue exclusion.
# Changes in intracellular Ca^2+ were measured with a FlexStation II scanning fluorometer (Molecular Devices, Sunnyvale, CA, USA). The cells, suspended in Hank’s balanced salt solution without Ca^2+ and Mg^2+ but with 10 mM HEPES (HBSS^−), were loaded with 1.25 μg/mL Fluo-4 AM dye and incubated for 30 min in the dark at 37 °C. After dye loading, the cells were washed with HBSS^- containing 10 mM HEPES, resuspended in HBSS^+ containing Ca^2+, Mg^2+, and 10 mM HEPES (HBSS^+), and aliquoted into the wells of flat-bottom, half-area-well black microtiter plates (2 × 10^5 cells/well). For the evaluation of direct agonist activity, compounds of interest were added from a source plate containing dilutions of test compounds in HBSS^+, and changes in fluorescence were monitored (λex = 485 nm, λem = 538 nm) every 5 s for 240 s at room temperature after the automated addition of compounds. Maximum change in fluorescence during the first 3 min, expressed in arbitrary units over baseline, was used to determine a response. […] Curve fitting (5–6 points) and calculation of median effective inhibitory concentrations (IC50) were performed by nonlinear regression analysis of the dose–response curves generated using Prism 9 (GraphPad Software, Inc., San Diego, CA, USA).
# FPR1 = molecular target: T1, FPR1 (Homo sapiens, UniProt P21462); assay: Ca2+ mobilization in FPR1-transfected HL60 cells; type: cell-based; details: for Emax: HL-60, read-out: FPR1-HL60 Efficacy (converted)
# T1 construct: expressed in transfected cells; host or cells: HL60 (human promyelocytic leukemia), stably transfected; gift from Dr. Marie-Josephe Rabiet
# T1 sequence (P21462 1-350): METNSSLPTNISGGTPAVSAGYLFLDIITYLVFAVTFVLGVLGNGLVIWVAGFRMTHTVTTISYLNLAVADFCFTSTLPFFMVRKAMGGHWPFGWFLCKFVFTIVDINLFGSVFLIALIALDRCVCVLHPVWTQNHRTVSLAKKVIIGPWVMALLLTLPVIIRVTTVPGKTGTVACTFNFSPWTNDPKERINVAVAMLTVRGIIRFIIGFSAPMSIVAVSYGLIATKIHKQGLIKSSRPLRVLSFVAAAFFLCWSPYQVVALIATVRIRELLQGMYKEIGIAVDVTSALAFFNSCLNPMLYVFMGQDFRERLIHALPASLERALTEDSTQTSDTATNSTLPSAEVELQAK
# Method: (§1) Human promyelocytic leukemia HL60 cells stably transfected with FPR1 (FPR1-HL60 cells) or FPR2 (FPR2-HL60 cells) (kind gift from Dr. Marie-Josephe Rabiet, Université Joseph Fourier, Grenoble, France) were cultured in RPMI 1640 medium supplemented with 10% heat-inactivated fetal calf serum, 10 mM HEPES, 100 μg/mL streptomycin, 100 U/mL penicillin, and G418 (1 mg/mL). G418 was removed in the last round of culture before assays were performed.
# FPR2 = molecular target: T2, FPR2 (Homo sapiens, UniProt P25090); assay: Ca2+ mobilization in FPR2-transfected HL60 cells; type: cell-based; details: for Emax: HL-60, read-out: FPR2-HL60 Efficacy (converted); for selectivity index (SI) FPR1/FPR2: ratio of EC50 FPR1-HL60 / FPR2-HL60
# T2 construct: expressed in transfected cells; host or cells: HL60 (human promyelocytic leukemia), stably transfected; gift from Dr. Marie-Josephe Rabiet
# T2 sequence (P25090 1-351): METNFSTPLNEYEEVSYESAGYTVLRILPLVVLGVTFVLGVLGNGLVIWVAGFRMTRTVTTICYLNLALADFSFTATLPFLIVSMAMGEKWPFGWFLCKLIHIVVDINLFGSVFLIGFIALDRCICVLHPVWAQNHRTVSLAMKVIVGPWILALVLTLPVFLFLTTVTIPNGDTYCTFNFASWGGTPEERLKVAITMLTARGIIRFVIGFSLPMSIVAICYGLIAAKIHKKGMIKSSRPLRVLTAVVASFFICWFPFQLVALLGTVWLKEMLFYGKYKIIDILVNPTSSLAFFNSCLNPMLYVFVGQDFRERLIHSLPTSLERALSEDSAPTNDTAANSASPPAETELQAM
# Method: as §1
EC50 (human neutrophils (hPMN)),EC50 (FPR1),Emax (FPR1),melting point,EC50 (FPR2),Emax (FPR2),selectivity index (SI) FPR1/FPR2 (FPR2),Structure (SMILES),Emax (human neutrophils (hPMN))
–,–,–,232 to 234 °C (dec.),–,–,–,"Cc1c(-c2cccc(O)c2)cc(C#N)c(=O)n1CC(=O)Nc1ccc(O)cc1 [Compound 14c, 2-[3-Cyano-5-(3-hydroxyphenyl)-6-methyl-2-oxopyridin-1(2H)-yl]-N-(4-hydroxyphenyl) acetamide]",–
20.8 ± 4.8 µM,18 ± 3.5 µM,110%,122 to 124 °C,2.4 ± 1.2 µM,150%,7.5,"Cc1c(C(=O)N(C)C)cc(C#N)c(=O)n1CC(=O)Nc1ccc(Br)cc1 [Compound 8e, 1-{2-[(4-Bromophenyl)amino]-2-oxoethyl}-5-cyano-N,N,2-trimethyl-6-oxo-1,6-dihydropyridine-3-carboxamide]",110%
11.4 ± 3.1 µM,21.2 ± 1.2 µM,145%,290 °C (dec.),3.3 ± 0.2 µM,120%,6,"CCNC(=O)c1cc(C#N)c(=O)n(CC(=O)Nc2ccc(Br)cc2)c1C [Compound 8b, 1-{2-[(4-Bromophenyl)amino]-2-oxoethyl}-5-cyano-N-ethyl-2-methyl-6-oxo-1,6-dihydropyridine-3-carboxamide]",80%
4.9 ± 1.2 µM,2.2 ± 0.6 µM,105%,> 300 °C (dec.),1.3 ± 0.4 µM,115%,–,"CNC(=O)c1cc(C#N)c(=O)n(CC(=O)Nc2ccc(Br)cc2)c1C [Compound 8a, 1-{2-[(4-Bromophenyl)amino]-2-oxoethyl}-5-cyano-N,2-dimethyl-6-oxo-1,6-dihydropyridine-3-carboxamide]",105%
–,–,–,127 to 129 °C,–,–,–,"COc1cccc(-c2cc(C#N)c(=O)n(CC(=O)Nc3ccc(O)cc3)c2C)c1 [Compound 13c, 2-[3-Cyano-5-(3-methoxyphenyl)-6-methyl-2-oxopyridin-1(2H)-yl]-N-(4-hydroxyphenyl) acetamide]",–
3.7 ± 0.7 µM,0.23 ± 0.06 µM,115%,282 to 284 °C (dec.),0.23 ± 0.02 µM,150%,–,"Cc1c(-c2cccc(O)c2)cc(C#N)c(=O)n1CC(=O)Nc1ccc(Br)cc1 [Compound 14a, N-(4-Bromophenyl)-2-[3-cyano-5-(3-hydroxyphenyl)-6-methyl-2-oxopyridin-1(2H)-yl] acetamide]",130%
–,40.1 ± 7.2 µM,50%,187 to 189 °C (dec.),37.6 ± 5.6 µM,150%,–,"Cc1c(-c2cccc(O)c2)cc(C#N)c(=O)n1CC(=O)Nc1cccc(O)c1 [Compound 14b, 2-[3-Cyano-5-(3-hydroxyphenyl)-6-methyl-2-oxopyridin-1(2H)-yl]-N-(3-hydroxyphenyl) acetamide]",–
–,–,–,128 to 130 °C,–,–,–,"COc1cccc(-c2cc(C#N)c(=O)n(CC(=O)Nc3cccc(O)c3)c2C)c1 [Compound 13b, 2-[3-Cyano-5-(3-methoxyphenyl)-6-methyl-2-oxopyridin-1(2H)-yl]-N-(3-hydroxyphenyl) acetamide]",–
4 ± 0.9 µM,9.1 ± 1.4 µM,140%,261 to 263 °C (dec.),1 ± 0.4 µM,130%,9,"CCCCNC(=O)c1cc(C#N)c(=O)n(CC(=O)Nc2ccc(Br)cc2)c1C [Compound 8d, 1-{2-[(4-Bromophenyl)amino]-2-oxoethyl}-N-butyl-5-cyano-2-methyl-6-oxo-1,6-dihydropyridine-3-carboxamide]",70%

# The remaining lines, values behind:
Structure (SMILES),EC50 (human neutrophils (hPMN)),EC50 (FPR1),Emax (FPR1),melting point,EC50 (FPR2),Emax (FPR2),selectivity index (SI) FPR1/FPR2 (FPR2),Emax (human neutrophils (hPMN))
"Cc1c(C(=O)OC(C)C)cc(C#N)c(=O)n1CC(=O)Nc1ccc(Br)cc1 [Compound 4c, Isopropyl 1-{2-[(4-bromophenyl)amino]-2-oxoethyl}-5-cyano-2-methyl-6-oxo-1,6-dihydropyridine-3-carboxylate]",10.2 ± 1.9 µM,7.7 ± 1.7 µM,180%,223 to 224 °C,8.4 ± 1.7 µM,85%,–,120%
"Cc1c(C(N)=O)cc(C#N)c(=O)n1CC(=O)Nc1ccc(Br)cc1 [Compound 6, 1-{2-[(4-Bromophenyl)amino]-2-oxoethyl}-5-cyano-2-methyl-6-oxo-1,6-dihydropyridine-3-carboxamide]",29.1 ± 3.6 µM,27.1 ± 4.2 µM,60%,–,8.4 ± 0.6 µM,125%,–,90%
"COc1ccc(C(=O)c2cc(C#N)c(=O)n(CC(=O)Nc3ccc(Br)cc3)c2C)cc1 [Compound 11, N-(4-bromophenyl)-2-[3-cyano-5-(4-methoxybenzoyl)-6-methyl-2-oxopyridin-1(2H)-yl]acetamide]",7.8 ± 2.2 µM,5.2 ± 0.4 µM,105%,–,1.9 ± 0.2 µM,110%,–,120%
"CCCCOC(=O)c1cc(C#N)c(=O)n(CC(=O)Nc2ccc(Br)cc2)c1C [Compound 4b, Butyl 1-{2-[(4-bromophenyl)amino]-2-oxoethyl}-5-cyano-2-methyl-6-oxo-1,6-dihydropyridine-3-carboxylate]",27.9 ± 3.2 µM,29.7 ± 4.6 µM,70%,109 to 111 °C (dec.),18.3 ± 4.2 µM,75%,–,110%
"COc1cccc(COC(=O)c2cc(C#N)c(=O)n(CC(=O)Nc3ccc(Br)cc3)c2C)c1 [Compound 4d, 3-Methoxybenzyl 1-{2-[(4-bromophenyl)amino]-2-oxoethyl}-5-cyano-2-methyl-6-oxo-1,6-dihydropyridine-3-carboxylate]",12.7 ± 3.9 µM,20.8 ± 3.7 µM,85%,–,14.1 ± 3.8 µM,100%,–,65%
"COc1ccc(C(=O)c2cc(C(N)=O)c(=O)n(CC(=O)Nc3ccc(Br)cc3)c2C)cc1 [Compound 10, 1-{2-[(4-bromophenyl)amino]-2-oxoethyl}-5-(4-methoxybenzoyl)-6-methyl-2-oxo-1,2-dihydropyridine-3-carboxamide]",7.5 ± 2.1 µM,4.4 ± 0.5 µM,105%,–,3.4 ± 0.7 µM,130%,–,120%
"COc1cccc(CCOC(=O)c2cc(C#N)c(=O)n(CC(=O)Nc3ccc(Br)cc3)c2C)c1 [Compound 4e, 3-Methoxyphenethyl 1-{2-[(4-bromophenyl)amino]-2-oxoethyl}-5-cyano-2-methyl-6-oxo-1,6-dihydropyridine-3-carboxylate]",17.9 ± 4.2 µM,24.1 ± 5.2 µM,70%,–,17.3 ± 4.1 µM,75%,–,65%
"Cc1c(C(=O)O)cc(C#N)c(=O)n1CC(=O)Nc1ccc(Br)cc1 [Compound 2, 1-{2-[(4-Bromophenyl)amino]-2-oxoethyl}-5-cyano-2-methyl-6-oxo-1,6-dihydropyridine-3-carboxylic acid]",4.3 ± 1.5 µM,3.5 ± 0.9 µM,100%,180 to 182 °C (dec.),9.2 ± 1.9 µM,100%,–,120%
"CCCOC(=O)c1cc(C#N)c(=O)n(CC(=O)Nc2ccc(Br)cc2)c1C [Compound 4a, Propyl 1-{2-[(4-bromophenyl)amino]-2-oxoethyl}-5-cyano-2-methyl-6-oxo-1,6-dihydropyridine-3-carboxylate]",6.4 ± 1.7 µM,16.3 ± 3.4 µM,115%,193 to 195 °C (dec.),3.2 ± 0.6 µM,140%,–,115%
